Like-named read-outs stand apart in the source and are kept apart here.
Columns and labels:
human mPGES-1 = target: T1, human mPGES-1 (Homo sapiens, UniProt O14684); experiment: Evaluation of human mPGES-1 enzyme inhibitory activity (HTRF measurement of PGE2); format: biochemical; conditions: IC50 value; microsome fraction of CHO-S cells expressing human mPGES-1, PGH2 substrate, PGE2 by HTRF; read-out: humans mPGES-1 enzyme inhibitory activity
T1 construct: made in house; host or cells: Chinese hamster ovary-derived cells (FreeStyle CHO-S), transient transfection of pcDNA3.1(+)/human mPGES-1; microsome fraction
T1 sequence (O14684 1-152): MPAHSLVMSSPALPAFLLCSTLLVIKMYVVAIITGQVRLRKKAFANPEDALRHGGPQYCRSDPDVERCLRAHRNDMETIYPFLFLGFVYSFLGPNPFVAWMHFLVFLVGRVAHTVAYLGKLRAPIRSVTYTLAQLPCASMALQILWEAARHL
Procedure, shortened: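 Enzyme source was a microsome fraction from CHO-S cells transfected with human mPGES-1, diluted to 5 μg/mL protein in reduced GSH (12.5 mmol/L KPB), preincubated with compound for 10 min at room temperature with 2% final DMSO. Reaction started with PGH2 and run 45 seconds at room temperature. PGE2 measured by HTRF.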

A549 cell = experiment: Evaluation of PGE2 production inhibitory action using A549 cell (IL-1β stimulated); format: cell-based, human; conditions: for IC50: recombinant human IL-1β stimulation, read-out: cell PGE2 production inhibitory activity (IC50 value)
Procedure, shortened: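 A549 cells (human lung cancer) in F-12K with 2% FBS were preincubated with test article for 30 min, then stimulated with IL-1β (1 ng/mL final) for 18 hr at 37 °C; 0.5% DMSO final. Supernatant PGE2 was measured by HTRF against a standard curve; inhibition is relative to vehicle and unstimulated blank wells.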

[1] = Measurement of solubility in Britton-Robinson buffer solution (pH 8.5) containing 0.5 W/V % polysorbate 80; format: physicochemical; conditions: Britton-Robinson buffer pH 8.5 containing 0.5 W/V % polysorbate 80, 20° C., 18 hr
Procedure: Experimental Example 5: Measurement of Solubility
(2) Britton-Robinson Buffer Solution (pH 8.5) Containing 0.5 W/V % Polysorbate 80
The test article was weighted in glass microtube, and dispersed in Britton-Robinson buffer solution (pH 8.5, 1.5 mL) containing 0.5 W/V % polysorbate 80 to prepare a suspension. The suspension was shaked at 20° C. for 18 hr, and filtered through a membrane filter (0.45 μm), and the filtrate was used as a sample.
(3) Preparation of Standard Solution and Sample Solution, and Measurement of Solubility
Sample solution was prepared by appropriately diluting sample with a mixture of water/acetonitrile (1:1). Standard solution was prepared by precisely weighting the test article, and then diluting the test article with a mixture of water/acetonitrile (1:1). The standard solution and sample solution were analyzed by liquid chromatography, and the test article content of the sample solution was calculated according to external standard method, based on which the solubility was determined.

| SMILES | IC50 (human mPGES-1) | IC50 (A549 cell; Homo sapiens, A549, A549 cell) | 0.5% polysorbate 80 solubility (%) at pH 8.5 [1] | inhibition at 0.03 µM (A549 cell; Homo sapiens, A549 cell, IL-1β stimulation, at the highest concentration given (0.03 μM), read-out: cell PGE2 production inhibitory activity (%), printed in parentheses after the > bound) | IC50 (A549 cell; A549 cell) |
| --- | --- | --- | --- | --- | --- |
| CO[C@](C)(C(=O)NCc1ccc(Cl)c(-c2nc(O)nc(-c3cccc(C(C)(C)C)c3)n2)c1)C(F)(F)F [Example 66, (R)—N-{3-[4-(3-tert-butylphenyl)-6-hydroxy-1,3,5-triazin-2-yl]-4-chlorobenzyl}-3,3,3-trifluoro-2-methoxy-2-methylpropionamide] | 0.7 nM | 3.8 nM | 0.136% |  |  |
| CC(C)c1cccc(-c2nc(O)nc(-c3cc(CNC(=O)C4(C(F)(F)F)CCCCC4)ccc3Cl)n2)c1 [Example 71, 1-trifluoromethylcyclohexanecarboxylic acid 4-chloro-3-[4-hydroxy-6-(3-isopropylphenyl)-1,3,5-triazin-2-yl]benzylamide] | 0.7 nM | 3.4 nM | 0.057% |  |  |
| CCC[C@@H](C)Oc1ccc(-c2nc(O)nc(-c3cc(CNC(=O)C(CC)(CC)OC)ccc3Cl)n2)cn1 [Example 79, 2-ethyl-N-(4-chloro-3-{4-hydroxy-6-[6-((R)-1-methylbutoxy)pyridin-3-yl]-1,3,5-triazin-2-yl}benzyl)-2-methoxybutanamide] | 4.6 nM | 2.6 nM | 0.157% |  |  |
| CCC[C@H](C)Oc1ccc(-c2nc(O)nc(-c3cc(CNC(=O)C(C)(C)OC)ccc3Cl)n2)cn1 [Example 102] | 1.1 nM | 25 nM |  |  |  |
| CCC[C@H](C)Oc1ccc(-c2nc(O)nc(-c3cc(CNC(=O)C(CC)(CC)OC)ccc3Cl)n2)cn1 [Example 103] | 2.4 nM | 6.5 nM |  |  |  |
| CCC[C@H](C)Oc1ccc(-c2nc(O)nc(-c3cc(CNC(=O)C(C)(C)CF)ccc3Cl)n2)cn1 [Example 105] | 1.5 nM | 15 nM |  |  |  |
| CCC[C@H](C)Oc1ccc(-c2nc(O)nc(-c3cc(CNC(=O)C4(CF)CCCCC4)ccc3Cl)n2)cn1 [Example 106] | 3.6 nM | 5 nM |  |  |  |
| CC(C)c1cc(-c2nc(O)nc(-c3cc(CNC(=O)C4(C(F)F)CCCCC4)ccc3Cl)n2)ccc1Cl [Example 108] | 2.4 nM | 2.4 nM |  |  |  |
| CCC[C@H](C)Oc1ccc(-c2nc(O)nc(-c3cc(CNC(=O)C4(C(F)F)CCCCC4)ccc3Cl)n2)cn1 [Example 109] | 3.2 nM | 1.8 nM |  |  |  |
| CCC[C@H](C)Oc1ccc(-c2nc(O)nc(-c3cc(CNC(=O)C4(C(F)F)CCCC4)ccc3Cl)n2)cn1 [Example 110] | 3.7 nM | 2.7 nM |  |  |  |
| CC(C)c1cccc(-c2nc(O)nc(-c3cc(CNC(=O)C4(CF)CCCCCC4)ccc3Cl)n2)c1 [Example 111] | 1.5 nM | 54 nM |  |  |  |
| CC(C)(C)c1cccc(-c2nc(O)nc(-c3cc(CNC(=O)C4(CF)CCCCCC4)ccc3Cl)n2)c1 [Example 112] | 3.3 nM | 24 nM |  |  |  |
| CC1(c2cccc(-c3nc(O)nc(-c4cc(CNC(=O)C5(CF)CCCCCC5)ccc4Cl)n3)c2)CC1 [Example 113] | 1.8 nM | 95 nM |  |  |  |
| CC(C)c1cc(-c2nc(O)nc(-c3cc(CNC(=O)C4(CF)CCCCCC4)ccc3Cl)n2)ccc1Cl [Example 114] | 3.1 nM | 13 nM |  |  |  |
| CCC(CC)(CF)C(=O)NCc1ccc(Cl)c(-c2nc(O)nc(-c3ccc(Cl)c(C(C)C)c3)n2)c1 [Example 115] | 1.3 nM | 6.6 nM |  |  |  |
| CCC(CC)(C(=O)NCc1ccc(Cl)c(-c2nc(O)nc(-c3cccc(C(C)C)c3)n2)c1)C(F)F [Example 116] | 1.2 nM | 7.2 nM |  |  |  |
| CCC(CC)(C(=O)NCc1ccc(Cl)c(-c2nc(O)nc(-c3cccc(C(C)(C)C)c3)n2)c1)C(F)F [Example 117] | 1.6 nM | 4.2 nM |  |  |  |
| CCC(CC)(C(=O)NCc1ccc(Cl)c(-c2nc(O)nc(-c3cccc(C4(C)CC4)c3)n2)c1)C(F)F [Example 118] | 0.4 nM | 17 nM |  |  |  |
| CCC(CC)(C(=O)NCc1ccc(Cl)c(-c2nc(O)nc(-c3ccc(Cl)c(C(C)C)c3)n2)c1)C(F)F [Example 119] | 1.8 nM | 3 nM |  |  |  |

| SMILES | IC50 (human mPGES-1) | IC50 (A549 cell; Homo sapiens, A549, A549 cell) | 0.5% polysorbate 80 solubility (%) at pH 8.5 [1] | inhibition at 0.03 µM (A549 cell; Homo sapiens, A549 cell, IL-1β stimulation, at the highest concentration given (0.03 μM), read-out: cell PGE2 production inhibitory activity (%), printed in parentheses after the > bound) | IC50 (A549 cell; A549 cell) |
| --- | --- | --- | --- | --- | --- |
| CC(C)c1cccc(-c2nc(O)nc(-c3cc(CNC(=O)C4(C(F)F)CCCCCC4)ccc3Cl)n2)c1 [Example 120] | 1.8 nM | > 30 nM |  | 43% |  |
| CC(C)(C)c1cccc(-c2nc(O)nc(-c3cc(CNC(=O)C4(C(F)F)CCCCCC4)ccc3Cl)n2)c1 [Example 121] | 3.3 nM | 7.9 nM |  |  |  |
| CC1(c2cccc(-c3nc(O)nc(-c4cc(CNC(=O)C5(C(F)F)CCCCCC5)ccc4Cl)n3)c2)CC1 [Example 122] | 1.8 nM | 19 nM |  |  |  |
| CCC[C@@H](C)Oc1ccc(-c2nc(O)nc(-c3cc(CNC(=O)C(CC)(CC)C(F)F)ccc3Cl)n2)cn1 [Example 123] | 4 nM | 1.5 nM |  |  |  |
| CCC[C@@H](C)Oc1ccc(-c2nc(O)nc(-c3cc(CNC(=O)C(CC)(CC)CF)ccc3Cl)n2)cn1 [Example 124] | 2.6 nM | 2.5 nM |  |  |  |
| CCC[C@@H](C)Oc1ccc(-c2nc(O)nc(-c3cc(CNC(=O)C4(C(F)(F)F)CCCC4)ccc3Cl)n2)cn1 [Example 125] | 6 nM | 1.6 nM |  |  |  |
| CCC[C@@H](C)Oc1ccc(-c2nc(O)nc(-c3cc(CNC(=O)C4(C(F)F)CCCC4)ccc3Cl)n2)cn1 [Example 126] | 3.1 nM | 2.5 nM |  |  |  |
| CCC[C@@H](C)Oc1ccc(-c2nc(O)nc(-c3cc(CNC(=O)C4(C(F)F)CCCCC4)ccc3Cl)n2)cn1 [Example 127] | 2.4 nM | 0.9 nM |  |  |  |
| CCC[C@@H](C)Oc1ccc(-c2nc(O)nc(-c3cc(CNC(=O)C4(CF)CCCCC4)ccc3Cl)n2)cn1 [Example 128] | 2.2 nM | 1.3 nM |  |  |  |
| CCC[C@H](C)Oc1ccc(-c2nc(O)nc(-c3cc(CNC(=O)C(CC)(CC)C(F)F)ccc3Cl)n2)cn1 [Example 130] | 3.8 nM | 1.2 nM |  |  |  |
| CCC(OC)(C(=O)NCc1ccc(Cl)c(-c2nc(O)nc(-c3cccc(C(C)(C)C)c3)n2)c1)C(F)(F)F (stereo not drawn) [Example 133] | 1.4 nM |  |  |  | 2.4 nM |
| CCC(OC)(C(=O)NCc1ccc(Cl)c(-c2nc(O)nc(-c3cccc(C(C)(C)C)c3)n2)c1)C(F)(F)F (stereo not drawn) [Example 135] | 2 nM |  |  |  | 5.4 nM |
| CCC(OC)(C(=O)NCc1ccc(Cl)c(-c2nc(O)nc(-c3cccc(C4(C)CC4)c3)n2)c1)C(F)(F)F (stereo not drawn) [Example 136] | 1.2 nM | 10 nM |  |  |  |
| CCC(OC)(C(=O)NCc1ccc(Cl)c(-c2nc(O)nc(-c3ccc(Cl)c(C(C)C)c3)n2)c1)C(F)(F)F (stereo not drawn) [Example 137] | 4.7 nM | 2.6 nM |  |  |  |
| CCC(OC)(C(=O)NCc1ccc(Cl)c(-c2nc(O)nc(-c3cccc(C4(C)CC4)c3)n2)c1)C(F)(F)F (stereo not drawn) [Example 138] | 1.5 nM |  |  |  | 8.4 nM |
| CCC(OC)(C(=O)NCc1ccc(Cl)c(-c2nc(O)nc(-c3ccc(Cl)c(C(C)C)c3)n2)c1)C(F)(F)F (stereo not drawn) [Example 139] | 5.4 nM |  |  |  | 2.1 nM |
| CCC[C@H](C)Oc1ccc(-c2nc(O)nc(-c3cc(CNC(=O)C4(C(F)(F)F)CCCC4)ccc3Cl)n2)cn1 [Example 140] | 10 nM | 0.8 nM |  |  |  |
| CCC[C@H](C)Oc1ccc(-c2nc(O)nc(-c3cc(CNC(=O)C4(CF)CCCCCC4)ccc3Cl)n2)cn1 [Example 141] | 14 nM | 3.8 nM |  |  |  |

From patent US12492182B2, “Hydroxytriazine compounds and pharmaceutical use thereof” (Japan Tobacco Inc., priority 2015, dated 2025)
